Data reported in patent US20100004704A1, “METHOD FOR TREATING A CARDIAC RHYTHM DISTURBANCE” (The Cleveland Clinic Foundation, priority 2008, published 2010).

Tested on: open-chest canines
Assay: Dobutamine infusion followed by vagal (sinus node fat pad) stimulation, hemodynamics in open-chest canines
Format: in vivo
Method: A study was done to assess the effects of dobutamine administration followed by vagal stimulation on sinus tachycardia. The study was done using 4 open-chest canines. Dobutamine was infused at a rate of 2.5-7.5 μg/kg/min to increase the cardiac contractility and the sinus rate at least 30 beats per minute. Vagal nerve stimulation was applied at the epicardial sinus node fat pad, located at the junction of the right pulmonary vein and the right atrium. Vagal stimulation was done with an electrical lead comprising a silicone plate with four platinum electrodes imbedded therein. Rectangular current pulses were delivered with intensity in the range of 1 to 5 mA, duration of pulse in the range of 0.1 ms to 1 ms, and frequency of repetition of the pulses between 20-30 Hz. To avoid tissue polarization, the polarity of consecutive pulses was alternated. Vagal nerve stimulation was administered to slow the sinus rate to the control level. Hemodynamic data was collected and compared in canines during control, during administration of dobutamine, and during both dobutamine and vagal stimulation.

[1] = dobutamine + vagal stimulation at sinus node fat pad
[2] = dobutamine infused 2.5-7.5 μg/kg/min, no vagal stimulation

With `CC(CCc1ccc(O)cc1)NCCc1ccc(O)c(O)c1` (stereo not drawn) [Dobutamine, dobutamine] the RR interval (dobutamine 2.5-7.5 μg/kg/min + vagal stimulation at sinus node fat pad (1-5 mA, 0.1-1 ms, 20-30 Hz)) was 560 ± 16 ms, the “+dp/dt” value [1] was 2980 ± 602 mmHg/s and the CO [1] was 3.6 ± 0.8 L/min. It also gave a DBP [1] of 74 ± 7 mmHg, an LVEDP [1] of 7.6 ± 1.5 mmHg and an LVSP [1] of 120 ± 16 mmHg. The SBP [1] was 126 ± 12 mmHg, the “−dp/dt” value [1] was −1897 ± −313 mmHg/s and the “heart rate, systolic blood pressure (SBP), diastolic blood pressure (DBP), left ventricular systolic pressure (LVSP) (and its ±dp/dt), and cardiac output (CO)” value (dobutamine administration vs. control, open-chest canines) was “significantly increased”. The RR interval (dobutamine infused 2.5-7.5 μg/kg/min, 4 open-chest canines, no vagal stimulation) was 421 ± 36 ms, the “+dp/dt” value [2] was 3607 ± 861 mmHg/s and the CO [2] was 4.2 ± 0.9 L/min. It also gave a DBP [2] of 84 ± 7 mmHg, an LVEDP [2] of 6.9 ± 2.2 mmHg and an LVSP [2] of 130 ± 13 mmHg. For the same compound, the SBP [2] was 135 ± 18 mmHg, the “−dp/dt” value [2] was −2259 ± −495 mmHg/s and the sinus rate increase (vagal stimulation combined with dobutamine, all other hemodynamic benefits preserved) was “eliminated sinus rate increase”.
